# ChEMBL document CHEMBL3352505, “Pentacycloundecylamines and conjugates thereof as chemosensitizers and reversed chloroquine agents” (Bioorg Med Chem Lett, 2014)
# Experiments:
# Plasmodium falciparum [1] = assay: Resistance index, ratio of IC50 for chloroquine-resistant Plasmodium falciparum Dd2 to IC50 for chloroquine-sensitive Plasmodium falciparum D10; format: functional
# [2] = Selectivity index, ratio of IC50 for CHO cells to IC50 for chloroquine-sensitive Plasmodium falciparum D10; format: toxicity, cell-based; conditions: hamster; read-out: Ratio IC50
# Plasmodium falciparum [3] = assay: Antimicrobial activity against chloroquine-resistant Plasmodium falciparum Dd2; format: functional
# Plasmodium falciparum [4] = assay: Antimicrobial activity against chloroquine-sensitive Plasmodium falciparum D10; format: functional
# Plasmodium falciparum [5] = assay: Ratio of chloroquine IC50 to compound IC50 for chloroquine-resistant Plasmodium falciparum Dd2; format: functional
# CHO = assay: Cytotoxicity against CHO cells by MTT assay; format: cell-based, Cricetulus griseus; conditions: for IC50: Cricetulus griseus, CHO
# Plasmodium falciparum [6] = assay: Resistance modification index, ratio of IC50 for chloroquine in presence of 10 uM compound to IC50 for chloroquine alone for chloroquine-resistant Plasmodium falciparum Dd2; format: functional
# Plasmodium falciparum [7] = assay: Resistance modification index, ratio of IC50 for chloroquine in presence of 1 uM compound to IC50 for chloroquine alone for chloroquine-resistant Plasmodium falciparum Dd2; format: functional
Structure (SMILES),Ratio IC50 (Plasmodium falciparum [1]),selectivity ratio [2],IC50 (Plasmodium falciparum [3]),IC50 (Plasmodium falciparum [4]),Ratio IC50 (Plasmodium falciparum [5]),IC50 (CHO),Ratio IC50 (Plasmodium falciparum [6]),"Activity (CHO; chinese hamster, cho)",Ratio IC50 (Plasmodium falciparum [7])
OC12C3C4CC5C6C4C1C6C(C53)N2CCNc1ccnc2cc(Cl)ccc12 (configuration not stated),7,2550,27.6 nM,3.74 nM,5,9540 nM,–,–,–
OC12C3C4CC5C6C4C1C6C(C53)N2CCCCCCNc1ccnc2cc(Cl)ccc12 (configuration not stated),14,149,253 nM,17.6 nM,–,2630 nM,–,–,–
c1ccc(CNC23OC4C5C6CC(C7C6C4C72)C53)cc1 (configuration not stated),–,–,> 2000 nM,> 2000 nM,–,–,0.48,Non-toxic,0.6
OC12C3C4CC5C6C4C1C6C(C53)N2CCCCNc1ccnc2cc(Cl)ccc12 (configuration not stated),22,283,187 nM,8.45 nM,–,2390 nM,–,–,–
CC[C@H]1CN2CCc3cc(OC)c(OC)cc3[C@@H]2C[C@@H]1C[C@H]1NCCc2cc(OC)c(OC)cc21 [EMETINE],–,–,–,–,–,61 nM,–,–,–
